The source of these data is ChEMBL document CHEMBL4418495, “Entpd5 inhibitors” (2012).

Active and inactive are the calls of the source. The rule behind the calls is not given here.

Assay [1] has as its target T1, Nucleoside diphosphate phosphatase ENTPD5 (Homo sapiens) (UniProt O75356).
T1 sequence (whole entry): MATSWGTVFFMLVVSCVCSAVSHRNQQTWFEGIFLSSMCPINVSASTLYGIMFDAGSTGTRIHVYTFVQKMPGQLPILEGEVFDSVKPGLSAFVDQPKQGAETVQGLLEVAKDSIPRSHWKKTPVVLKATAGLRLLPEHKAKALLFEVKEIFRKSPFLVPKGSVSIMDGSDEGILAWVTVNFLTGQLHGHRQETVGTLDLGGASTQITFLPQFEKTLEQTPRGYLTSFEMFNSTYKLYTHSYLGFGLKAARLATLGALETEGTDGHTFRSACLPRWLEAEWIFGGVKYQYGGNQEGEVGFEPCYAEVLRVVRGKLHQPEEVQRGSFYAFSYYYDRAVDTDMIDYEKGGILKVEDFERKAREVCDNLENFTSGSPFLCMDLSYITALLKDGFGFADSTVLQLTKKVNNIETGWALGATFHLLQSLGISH
Kind of assay: Inhibition of human recombinant ENTPD5 expressed in insect cells assessed as reduction in UDP hydrolysis at 1 uM incubated for 1 hr in presence of UMP, GTP and ATP by Escherichia coli UMP kinase pyrH catalyzed UMP phosphorylation coupled luciferase assay.

In assay [2] the target is T1, Nucleoside diphosphate phosphatase ENTPD5 (Homo sapiens). Description: Inhibition of human recombinant ENTPD5 expressed in insect cells assessed as reduction in reduction in UDP hydrolysis by measuring inorganic phosphate release incubated for 1 hr by malachite green based assay.
The target is the same in assay [3]. Kind of assay: Inhibition of human recombinant ENTPD5 expressed in insect cells assessed as reduction in UDP hydrolysis up to 10 uM incubated for 1 hr in presence of UMP, GTP and ATP by Escherichia coli UMP kinase pyrH catalyzed UMP phosphorylation coupled luciferase assay.
The target of assay [4] is T2, Uridylate kinase (Escherichia coli (strain K12)) (UniProt P0A7E9).
T2 sequence (whole entry): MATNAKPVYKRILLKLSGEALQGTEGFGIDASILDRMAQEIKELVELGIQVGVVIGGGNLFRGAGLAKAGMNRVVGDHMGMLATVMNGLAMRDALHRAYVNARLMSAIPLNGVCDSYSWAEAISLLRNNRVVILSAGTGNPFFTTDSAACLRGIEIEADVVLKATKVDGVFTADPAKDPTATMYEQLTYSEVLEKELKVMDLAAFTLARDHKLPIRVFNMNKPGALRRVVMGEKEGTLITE
Kind of assay: Inhibition of recombinant Escherichia coli UMP kinase pyrH catalyzed UMP phosphorylation in presence of GTP and ATP incubated for 1 hr by luminescence based assay.

With `O=C1NC(=S)N(c2ccc(Br)cc2)C(=O)/C1=C/c1ccc(-c2ccc(F)cc2)o1`, the inhibition result in assay [1] and in assay [2] was “Active” each time. In assay [3], the inhibition entry is “Dose-dependent effect”. In addition, the inhibition result in assay [4] is “inactive”.

Regarding `CCCCCCCCCCCCCCCC[N+](C)(C)CCN(Cc1ccc(OC)cc1)c1ncccn1`, the inhibition result in assay [1] and in assay [2] was “Active” throughout. Moreover, the inhibition entry in assay [3] was “Dose-dependent effect”. For the same molecule, the inhibition entry in assay [4] is “inactive”.

For `O=C(Nc1ccc2c(c1)S(=O)(=O)c1cc(NC(=O)c3cccs3)ccc1-2)c1cccs1`, the inhibition result in assay [1] and in assay [2] was “Active” in each case. In addition, the inhibition entry in assay [3] is “Dose-dependent effect”. Besides, the inhibition result in assay [4] is “inactive”.

In the case of `NC1=C/C(=C2\Nc3cc(N)ccc3S2)C(=O)C=C1`, the inhibition result in assay [1] and in assay [2] was “Active” in each case. Moreover, the inhibition entry in assay [3] is “Dose-dependent effect”. The inhibition entry in assay [4] is “inactive”.

Take `O=C1/C(=C/c2ccc(-c3cccc(C(F)(F)F)c3)o2)SC(=S)N1Cc1ccco1`: the inhibition entry in assay [1] and in assay [2] was “Active” each time. The inhibition entry in assay [3] was “Dose-dependent effect”. The inhibition entry in assay [4] is “inactive”.

Turning to `Cc1ccc2ncc(C(CC(=O)N3CCN(C(c4ccccc4)c4ccccc4)CC3)c3ccc4c(c3)OCO4)n2c1` (centres undefined), the inhibition entry in assay [1] and in assay [2] was “Active” in each case. Further, the inhibition entry in assay [3] is “Dose-dependent effect”. Further, in assay [4], the inhibition result is “inactive”.

On to `CCC(C)(C)C1CCc2c(sc(NC(=O)c3ccoc3C)c2C(N)=O)C1` (centres undefined), for which the inhibition result in assay [1] and in assay [2] was “Active” each time. Further, the inhibition result in assay [3] is “Dose-dependent effect”. For the same molecule, in assay [4], the inhibition entry was “inactive”.

Take `CCOc1cc(/C=C2\SC(=S)NC2=O)cc(Br)c1OCc1cccc2ccccc12`: the inhibition entry in assay [1] and in assay [2] was “Active” each time. For the same molecule, the inhibition result in assay [3] was “Dose-dependent effect”. For the same molecule, the inhibition entry in assay [4] is “inactive”.

Regarding `O=C(O)c1ccc(-c2ccc(/C=C3\SC(=S)N(c4ccc([N+](=O)[O-])cc4)C3=O)o2)cc1`, the inhibition entry in assay [1] and in assay [2] was “Active” in each case. For the same molecule, the inhibition entry in assay [3] is “Dose-dependent effect”. Moreover, in assay [4], the inhibition result was “inactive”.

In the case of `Cc1cc(/C=C2\C(=O)NC(=S)N(c3cccc(Cl)c3)C2=O)c(C)n1-c1ccc(Br)cc1`, the inhibition result in assay [1] and in assay [2] was “Active” throughout. For the same molecule, in assay [3], the inhibition entry is “Dose-dependent effect”. Moreover, in assay [4], the inhibition result was “inactive”.

Turning to `Cc1cccc(Oc2ccc(N3C(=O)C=CC3=O)cc2)c1C`, the inhibition entry in assay [1] and in assay [2] was “Active” throughout. In assay [3], the inhibition entry is “Dose-dependent effect”. Further, in assay [4], the inhibition result is “inactive”.

With `O=C1N=C2C=CC(I)=CC2C1NNc1cccc2cccnc12` (centres undefined), the inhibition result in assay [1] and in assay [2] was “Active” in each case. In addition, the inhibition entry in assay [3] was “Dose-dependent effect”. In addition, the inhibition result in assay [4] is “inactive”.

`O=S(=O)(Nc1ccccc1F)c1ccc2c(c1)[C@@H]1C=CC[C@@H]1[C@@H](c1ccc(F)cc1)N2`: the inhibition entry in assay [1] and in assay [2] was “Active” in each case. Moreover, the inhibition entry in assay [3] was “Dose-dependent effect”. Also, the inhibition entry in assay [4] is “inactive”.

For the molecule `O=C1N=C(Nc2cccc(Cl)c2Cl)S/C1=C/c1ccc(OCc2ccc(C(=O)O)cc2)c(Br)c1`, the inhibition entry in assay [1] and in assay [2] was “Active” throughout. Moreover, in assay [3], the inhibition result is “Dose-dependent effect”. In addition, the inhibition entry in assay [4] is “inactive”.

Take `N#CC1=C(N)n2c(s/c(=C\c3cc(Br)ccc3O)c2=O)=C(C#N)C1c1cc(Br)ccc1O` (centres undefined): the inhibition entry in assay [1] and in assay [2] was “Active” in each case. The inhibition entry in assay [3] is “Dose-dependent effect”. In assay [4], the inhibition entry was “inactive”.

On to `CC(=O)c1ccc(-c2ccc(C=C3C(=O)N(C)C(=S)N(C)C3=O)o2)cc1`, for which the inhibition entry in assay [1] and in assay [2] was “Active” each time. In assay [3], the inhibition result was “Dose-dependent effect”. Moreover, the inhibition entry in assay [4] is “inactive”.

In the case of `CCN(CC)c1ccc2cc(C(N)=O)/c(=N/c3cccc4ccccc34)oc2c1`, the inhibition result in assay [1] and in assay [2] was “Active” in each case. For the same molecule, the inhibition result in assay [3] was “Dose-dependent effect”. For the same molecule, in assay [4], the inhibition entry was “inactive”.

Regarding `COc1ccc(-n2cccc2/C=C2\C(=O)NC(=S)N(c3ccc(Br)cc3)C2=O)cc1`, the inhibition result in assay [1] and in assay [2] was “Active” each time. Moreover, the inhibition entry in assay [3] was “Dose-dependent effect”. Moreover, in assay [4], the inhibition result was “inactive”.

Take `Cc1ccc(-c2cc(C(F)(F)F)c3c(N)c(C(=O)c4ccc5c(c4)OCO5)sc3c2)s1`: the inhibition result in assay [1] and in assay [2] was “Active” throughout. The inhibition entry in assay [3] is “Dose-dependent effect”. In assay [4], the inhibition result is “inactive”.

On to `Cc1ccc(C)c(-c2nn(-c3ccccc3)cc2C=C2C(=O)NC(=O)NC2=O)c1`, for which the inhibition entry in assay [1] and in assay [2] was “Active” each time. Moreover, in assay [3], the inhibition entry is “Dose-dependent effect”. In addition, the inhibition result in assay [4] was “inactive”.

In the case of `COc1ccc(C(c2cc(C(C)(C)C)c(O)c(C(C)(C)C)c2)N2CCOCC2)cc1` (centres undefined), the inhibition entry in assay [1] and in assay [2] was “Active” in each case. Besides, in assay [3], the inhibition entry is “Dose-dependent effect”. In addition, the inhibition result in assay [4] was “inactive”.

For `COc1ccc(/C=C2\SC(=S)N(CCCC(=O)NNC(=O)c3ccccc3O)C2=O)cc1`, the inhibition result in assay [1] and in assay [2] was “Active” throughout. The inhibition result in assay [3] is “Dose-dependent effect”. The inhibition result in assay [4] is “inactive”.

With `S=C(NCc1ccccc1)Nc1ccc2nc(-c3ccco3)c(-c3ccco3)nc2c1`, the inhibition result in assay [1] and in assay [2] was “Active” in each case. In assay [3], the inhibition entry was “Dose-dependent effect”. The inhibition result in assay [4] is “inactive”.

For `Cc1ccnc(NC(c2ccc3cccnc3c2O)c2sccc2C)c1` (centres undefined), the inhibition result in assay [1] and in assay [2] was “Active” each time. In addition, the inhibition entry in assay [3] is “Dose-dependent effect”. Besides, in assay [4], the inhibition result was “inactive”.

With `C=CCN(CC(=O)N(Cc1ccc2c(c1)OCO2)Cc1coc2ccc(Cl)cc2c1=O)C(=O)c1cccc2ccccc12`, the inhibition entry in assay [1] and in assay [2] was “Active” throughout. In addition, the inhibition result in assay [3] is “Dose-dependent effect”. Also, the inhibition result in assay [4] is “inactive”.

On to `O=C1C=CC(=O)c2c1c(-c1ccccc1)nn2-c1ccccc1`, for which the inhibition result in assay [1] and in assay [2] was “Active” each time. Further, the inhibition result in assay [3] was “Dose-dependent effect”. Moreover, in assay [4], the inhibition entry is “inactive”.

For the molecule `COc1cccc(NC(=S)Nc2ccc3nc(-c4ccco4)c(-c4ccco4)nc3c2)c1`, the inhibition result in assay [1] and in assay [2] was “Active” throughout. The inhibition entry in assay [3] is “Dose-dependent effect”. For the same molecule, the inhibition entry in assay [4] was “inactive”.

`NC(=O)c1cc2cc(Br)ccc2o/c1=N\c1cc(C(F)(F)F)ccc1N1CCCCC1`: the inhibition result in assay [1] and in assay [2] was “Active” each time. Besides, in assay [3], the inhibition result was “Dose-dependent effect”. In addition, the inhibition entry in assay [4] was “inactive”.

On to `O=C1C=C/C(=C\NNc2nc(-c3ccccc3)c(CC(=O)O)s2)C(O)=C1`, for which the inhibition result in assay [1] and in assay [2] was “Active” throughout. In addition, the inhibition result in assay [3] was “Dose-dependent effect”. Besides, the inhibition result in assay [4] was “inactive”.

For `Cc1ccc(N2C(=O)/C(=C/c3cc(Br)cc(I)c3O)C(=O)NC2=S)cc1C`, the inhibition result in assay [1] and in assay [2] was “Active” in each case. The inhibition entry in assay [3] is “Dose-dependent effect”. The inhibition result in assay [4] is “inactive”.

`O=C1Nc2ccc(Br)cc2/C1=C1/SC(=S)N(c2ccc(Cl)cc2)C1=O`: the inhibition entry in assay [1] and in assay [2] was “Active” each time. Further, the inhibition entry in assay [3] is “Dose-dependent effect”. Moreover, the inhibition result in assay [4] was “inactive”.
